The text below walks through data of US5814649A, “Preventive and remedy for type 1 allergic diseases” (priority 1994, dated 1998).

In data set [1] the test system is IgE. Put plainly: Serum IgE level of OVA-sensitized BN rats by sandwich-type ELISA (Example 1). The format is in vivo, BN/Crj rats (female). The note with it: day 9 after OVA sensitization, mean ± SD. On the procedure:
(§1) Using female BN/Crj rats of 7 weeks old, sensitization by OVA was carried out as described below.
(§2) 10 mg/kg of OVA and 300 mg/kg of aluminum hydroxide (Alum) were intraperitoneally given (10 ml/kg) on the day (day 0) of administration. On day 3, 7 and 9 after the sensitization, blood samples were collected, the serum was separated and IgE concentration was determined. On day 10 after the sensitization, 60 mg/kg of OVA dissolved in physiological saline was given to the rats from the tail vein to cause anaphylactic shock. On the other hand, blood samples were collected at the jugular vein before and after the induction of the anaphylactic shock by OVA, and, after separation of the plasma, histamine level was determined.
(§3) The drug suspended in 1% carboxymethylcellulose (CMC) was repeatedly given orally once a day from day 0 to 9. […] All animals in each group were weighed in the morning once a week and the drug was given upon the body weights as weighed. To the solvent control group was given a 1% CMC solution. And further, non-medicated groups and non-treated groups were prepared. No treatment was applied to the non-treated group. The test was carried out using 6 rats per group.
(§4) The effect of the anilide compounds (I) on BN rats was evaluated from the survival rates of BN rats, the IgE levels in the sera and the histamine levels in the plasma before and after the induction of anaphylactic shock by OVA.
The IgE level in sera was determined using the homemade sandwich-type ELISA system.
For orientation: An ELISA detects its analyte on a solid surface through an enzyme-linked reagent.

For a further data set, the system named is histamine. Put plainly: Plasma histamine level before and after induction of anaphylactic shock by OVA (Example 1). The data set is classed as in vivo, BN/Crj rats (female). The note with it: 10 mg/kg orally once a day, ± SD; for Histamine amount, after OVA challenge: day 10, after OVA challenge; for Histamine amount, before OVA challenge: day 10, before OVA challenge. On the procedure:
as §1, §2, §3
Then, the plasma histamine levels before and after the induction of the anaphylactic shock by OVA on day 10 after OVA sensitization were determined as a parameter for allergic reactions.

Data set [2] relates to OVA-sensitized rat anaphylactic models. Briefly: Survival of OVA-sensitized BN rats after anaphylactic shock induced by OVA (Example 1). The data set is classed as in vivo, BN/Crj rats (female). The note with it: for Survival Rate: day 0 to 9, OVA challenge day 10. On the procedure:
as §1, §2, §3, §4

For data set [3] the test system is unchanged. Briefly: Minimum effective dose of leflunomide: survival of OVA-sensitized BN rats after anaphylactic shock (Example 2). The data set is classed as in vivo, BN/Crj rats (female). Particulars: for Survival Rate: day 0 to 9. On the procedure: (§5) Using female BN/Crj rats of 7 weeks old, sensitization by OVA was carried out as described below. 10 mg/kg of OVA and 300 mg/kg of aluminum hydroxide (Alum) were intraperitoneally given on the day (day 0) of administration. Blood samples were collected on day 3, 5, 7 and 9 after the sensitization, the serum was separated and IgE concentration was determined. And, 60 mg/kg of the OVA dissolved in physiological saline was given to the rats from the tail vein to cause anaphylactic shock.
(§6) The drug suspended in 1% carboxymethylcellulose (CMC) was repeatedly given orally once a day from day 0 to 9. […] All animals in each group were weighed in the morning once a week and the drug was given upon the body weights as weighed. A 1% CMC solution was given to the solvent control group. And further, non-treated group was prepared as control to which no treatment was applied. The test was carried out using 6 rats per group.

The subject of data set [4] is IgE. Put plainly: Minimum effective dose of leflunomide: serum IgE level of OVA-sensitized BN rats (Example 2). The data set is classed as in vivo, BN/Crj rats (female). The note with it: for Serum IgE amount: day 9 after OVA, ± SD. Here is the method: as §5, §6
Data set [5] deals with autoimmune diseases such as articular rheumatism, systemic lupus erythematosus and the like. The note with it: diseased animal models; cited from earlier work.
The conditions of data set [6]: after administration; cited from earlier work.
Another data set relates to mice. Particulars: cited from earlier work.
A further data set deals with mast cells. Particulars: cited from earlier work.
[7] abbreviates: leflunomide 0.5 mg/kg orally once a day.
Where [8] appears, read: leflunomide 1 mg/kg orally once a day.
[9] abbreviates: leflunomide 2 mg/kg orally once a day.

For `C#CCCC(=O)C(C#N)C(=O)Nc1ccc(C(F)(F)F)cc1` (centres unmarked) [Compound E, 2-cyano-3-oxo-N-[4-(trifluoromethyl)phenyl]-6-heptinamide], the “IgE amount in sera” value with IgE [1] (10 mg/kg orally once a day) was 0.4 ± 0.1 µg/mL. Also, in the data set with histamine, the “Histamine amount, after OVA challenge” value is 0.1 ± 0.0 µM and the “Histamine amount, before OVA challenge” value stood at 0.3 ± 0.1 µM. Besides, the “Survival Rate” value in [2] (10 mg/kg orally once a day) worked out at 100%.

Turning to `Cc1cc(NC(=O)C(C#N)C(=O)C2CC2)ccc1C(F)(F)F` (centres unmarked) [Compound B, 1-(3-methyl-4-trifluoromethylphenylcarbamoyl)-2-cyclopropyl-2-oxo-propionitrile], the “IgE amount in sera” value with IgE [1] (10 mg/kg orally once a day) stood at 0.6 ± 0.5 µg/mL. Also, in the data set on histamine, the “Histamine amount, after OVA challenge” value is 1.3 ± 1.8 µM and the “Histamine amount, before OVA challenge” value is 0.4 ± 0.1 µM. Besides, the “Survival Rate” value in data set [2] (10 mg/kg orally once a day) came out at 100%.

Regarding `C[C@]12C=CC(=O)C=C1CC[C@@H]1[C@@H]2[C@@H](O)C[C@@]2(C)[C@H]1CC[C@]2(O)C(=O)CO` [Prednisolone], the “IgE amount in sera” value with IgE [1] (2 mg/kg orally once a day) amounted to 148.1 ± 72.0 µg/mL; with IgE [1] (2 mg/kg orally once a day, listed as prednisolone), 148.1 µg/mL. Further, the “Survival Rate” value in data set [2] (2 mg/kg orally once a day) is given as 0%.

On to `Cc1oncc1C(=O)Nc1ccc(C(F)(F)F)cc1` [Leflunomide, 5-methylisoxazole-4-carboxylic acid-N-(4-trifluoromethyl) anilide], for which the “Survival Rate” value in [3] (setting [7]) is given as 0%; in data set [3] (setting [8]), 100%; in [3] (setting [9]), 100%; in data set [2] (2 mg/kg orally once a day), 100%. Moreover, the “survival without anaphylactic shock” value in data set [3] (leflunomide 1 mg/kg), in [3] (leflunomide 2 mg/kg) and in [2] (2 mg/kg) was “all animals survived without any anaphylactic shock” throughout. Moreover, in the data set on IgE [4] (after antigen sensitization), the “inhibition of increase in serum IgE level” value was “can inhibit an increase in the serum IgE level after the antigen sensitization”. In addition, the “Serum IgE amount” value with IgE [4] (setting [7]) is 357.7 ± 119.0 µg/mL; in the data set with IgE [4] (leflunomide 0.5 mg/kg orally once a day, listed as leflunomide), 357.7 µg/mL; in the data set on IgE [4] (setting [8]), 0.8 ± 0.1 µg/mL; in the data set with IgE [4] (leflunomide 1 mg/kg orally once a day, listed as leflunomide), 0.8 µg/mL; in the data set with IgE [4] (setting [9]), 0.4 ± 0.1 µg/mL; in the data set on IgE [4] (leflunomide 2 mg/kg orally once a day, listed as leflunomide) it was 0.4 µg/mL. In data set [5], the “effect on autoimmune diseases” value is “have an effect on autoimmune diseases such as articular rheumatism, systemic lupus erythematosus and the like”. The “IgE amount in sera” value in the data set with IgE [1] (2 mg/kg orally once a day) is 0.4 ± 0.1 µg/mL; in the data set with IgE [1] (2 mg/kg orally once a day, listed as leflunomide), 0.4 µg/mL. The “conversion to pharmacologically active Compound A” value in data set [6] is “converted to pharmacologically active Compound A as defined above by rapid metabolism after administration”. The “LD50 (p.o.)” value with mice was 445 mg/kg. For the same compound, the “inhibitory effect on histamine-release from mast cells” value in the data set on mast cells is “has an inhibitory effect on histamine-release from mast cells”.

As to `N#Cc1ccc(NC(=O)C(C#N)C(=O)C2CC2)cc1` (centres unmarked) [Compound D, 2-cyano-3-cyclopropyl-3-oxo-(4-cyanophenyl) propionamide], in the data set with IgE [1] (10 mg/kg orally once a day), the “IgE amount in sera” value came out at 0.6 ± 0.1 µg/mL. For the same compound, in the data set on histamine, the “Histamine amount, after OVA challenge” value stood at 0.6 ± 0.5 µM and the “Histamine amount, before OVA challenge” value was 0.4 ± 0.2 µM. Moreover, the “Survival Rate” value in data set [2] (10 mg/kg orally once a day) is given as 100%.

`CN(C(=O)C(C#N)C(=O)C1CC1)c1ccc(Cl)cc1` (centres unmarked) [Compound C, 2-cyano-3-cyclopropyl-3-oxo-N-methyl-N-(4-chlorophenyl)-propionamide]: in the data set on IgE [1] (10 mg/kg orally once a day), the “IgE amount in sera” value is 0.5 ± 0.1 µg/mL. Further, in the data set with histamine, the “Histamine amount, after OVA challenge” value was found to be 0.1 ± 0.0 µM and the “Histamine amount, before OVA challenge” value was 0.3 ± 0.2 µM. Besides, the “Survival Rate” value in data set [2] (10 mg/kg orally once a day) is given as 100%.

Consider `C/C(O)=C(\C#N)C(=O)Nc1ccc(C(F)(F)F)cc1` [Compound A, N-(4-trifluoromethylphenyl)-2-cyano-3-hydroxy-crotonamide], for which the “effect on autoimmune diseases” value in data set [5] is “have an effect on autoimmune diseases such as articular rheumatism, systemic lupus erythematosus and the like”. Further, the “IgE amount in sera” value with IgE [1] (10 mg/kg orally once a day) stood at 0.3 ± 0.0 µg/mL. In the data set on histamine, the “Histamine amount, after OVA challenge” value came to 0.1 ± 0.0 µM and the “Histamine amount, before OVA challenge” value turned out to be 0.2 ± 0.1 µM. Also, the “Survival Rate” value in data set [2] (10 mg/kg orally once a day) is 33%.
